Results: patent publication US8008351B2, “Methods for prophylaxis or treatment of conditions associated with cortical spreading depression” (UCB Pharma GmbH, priority 2004, dated 2011)
Entries after “also recorded” stand apart in the source; their conditions may differ.

Columns and labels:
[1] = test system: rat model of migraine (Cortical Spreading Depression, CSD); assay: Cortical spreading depression (CSD) rat model of migraine: number of KCl-induced direct current (DC) potentials; assay type: in vivo, rat (Wistar); settings: for Number of DC: n = 10, mean ± SD
Experimental: (§1) All animal experiments were carried out according to the National Institute of Health (NIH) guidelines for the care and use of laboratory animals, and approved by the Ethical Committee of the National Laboratory Animal Center, Kuopio, Finland. Altogether 77 adult male Wistar rats, purchased from Harlan, Netherlands, and weighing 250-350 g were used for the experiment. Animals were housed at a standard temperature (22±1° C.) and in a light-controlled environment (lights on from 7 am to 9 pm) with ad libitum access to food and water. Animals were grouped as follows: • 15 rats treated with SPM 927 (3 mg/kg; i.p.) 30 min before the CSD episode • 15 rats treated with SPM 927 (10 mg/kg; i.p.) 30 min before the CSD episode • 15 rats treated with SPM 927 (30 mg/kg; i.p.) 30 min before the CSD episode • 15 rats treated with Valproic acid (250 mg/kg; i.p.) 30 min before the CSD episode • 15 rats treated with Vehicle (2 ml/kg; i.p.) 30 min before CSD episode • 2 sham rats without CSD episode (topical NaCl application) and without any treatment Subgroups: • 10 rats to DC-potential, CBF, and blood pH, pO2, pCO2, glucose and mean arterial pressure analysis (rats killed at 30 min after CSD, brains fresh-frozen) • 5 rats to jugular vein cannulation (CGRP sampling) and dural as well as cortical CGRP immunocytochemistry (rats killed at 15 min after CSD)
Rats were anaethetized with Equithesin (3 ml/kg) and placed in a stereotactic frame. The rectal temperature was maintained at 37.0±1.0° C. with a homeothermic blanket system. A polyethylene catheter was inserted into the femoral artery in order to monitor arterial blood pressure and take blood samples for arterial pH, pO2, pCO2 and glucose. The arterial blood gases were measured with i-STAT portable clinical analyzer (I-STAT), arterial blood pressure monitored with Cardiocap II blood pressure analyzer (datex-Ohmeda, Helsinki, Finland) and blood glucose with standard glucose meter (Arkray, Japan). The measurements were taken 10 min before as well as 5 min after the CSD episode. The skin was opened by a medical incision and retracted laterally. Three skull burr holes were drilled in a row unilaterally. One was placed over the frontal cortex, the second frontoparietally and the third one parietally (FIG. 1). A laser-Doppler flow probe (Oxyflow, Oxford Optronics, UK) to monitor CBF and a non-invasive tungsten electrode for measuring direct current (DC) potential shifts were placed in the frontal and frontoparietal burr holes on the intact dura, respectively. The laser-Doppler flow probe was positioned in an area free of large pial and dural vessels to minimize a large-vessel contribution to the signal. For the DC-potential measurement, a reference electrode was fixed in the neck. CSDs were elicited unilaterally by placing a KCl-soaked (3.0 M) piece of filter paper on the parietal opening for 5 min. The KCl exposure was terminated by flushing the opening with saline and placing a dry piece of filter paper on the opening. The CBF and DC-potentials were monitored continuously starting from 5 minutes before CSD and continuing up to 30 min after the KCl exposure.
All values were calculated as mean±standard deviation (SD) and differences were considered to be statistically significant as the P<0.05 level. Statistical analysis was performed using StatsDirect statistical software. Differences among means were analyzed by using one-way analysis of variance (ANOVA). […]

[2] = test system: Calcitonin gene-related peptide (CGRP); assay: CSD-induced CGRP release in jugular vein blood (CGRP EIA); assay type: in vivo, rat (Wistar); settings: for CGRP release expressed as percent of baseline levels, 10-15 min: 10-15 min after induction of CSD; for CGRP release expressed as percent of baseline levels, 10-15 min / CGRP release expressed as percent of baseline levels, 20-25 min / CGRP release expressed as percent of baseline levels, Baseline: n = 5; for CGRP release expressed as percent of baseline levels, 20-25 min: 20-25 min after induction of CSD; for CGRP release expressed as percent of baseline levels, Baseline: baseline (before CSD)
Experimental: as §1
Following anesthesia (before CSD), a catheter was placed into the right jugular vein. 0.250 ml of blood was taken through the catheter for baseline measurement. For time course experiments further samples were taken at 10-15 and 20-25 min following initiation of CSD. Samples were stored in prepared Eppendorf tubes containing the protease inhibitors aprotinin (1000 KU, Bayer, Germany) and Pefabloc™ (1 mg/ml, Boehringer Mannheim, Germany), immediately cold centrifuged and stored at −80° C. The samples were acidified with trifluoroacetic acid and centrifuged at 6000 g for 20 min. The supernatant was extracted with Sep-Pak C-18 cartridges (Millipore, Waters, UK). Eluates were concentrated (dried) and dissolved in EIA buffer. CGRP concentrations were detected using a commercial CGRP EIA kit (S-3006, Bachem Distribution GmbH) according to the manufacturer's instructions.
All values were calculated as mean±standard deviation (SD) and differences were considered to be statistically significant as the P<0.05 level. Statistical analysis was performed using StatsDirect statistical software. Differences among means were analyzed by using one-way analysis of variance (ANOVA). Dunnet's post-hoc test was applied for multiple comparisons with a control group.

[3] = rat model of migraine, pre-treatment, 3 doses

| SMILES | Number of DC ([1]; 250 mg/kg i.p. 30 min before CSD episode) | CGRP release expressed as percent of baseline levels, 10-15 min ([2]; 250 mg/kg i.p.) | CGRP release expressed as percent of baseline levels, 20-25 min ([2]; 250 mg/kg i.p.) | CGRP release expressed as percent of baseline levels, Baseline ([2]; 250 mg/kg i.p.) | Number of DC ([1]; 3 mg/kg i.p. 30 min before CSD episode) | Number of DC ([1]; 10 mg/kg i.p. 30 min before CSD episode) | Number of DC ([1]; 30 mg/kg i.p. 30 min before CSD episode) | Effect on CSD / number of CSD-induced DC-potentials (in words) [1, 3] | CGRP release expressed as percent of baseline levels, 10-15 min ([2]; 3 mg/kg i.p.) | CGRP release expressed as percent of baseline levels, 20-25 min ([2]; 3 mg/kg i.p.) | CGRP release expressed as percent of baseline levels, Baseline ([2]; 3 mg/kg i.p.) | CGRP release expressed as percent of baseline levels, 10-15 min ([2]; 10 mg/kg i.p.) | CGRP release expressed as percent of baseline levels, 20-25 min ([2]; 10 mg/kg i.p.) | CGRP release expressed as percent of baseline levels, Baseline ([2]; 10 mg/kg i.p.) | CGRP release expressed as percent of baseline levels, 10-15 min ([2]; 30 mg/kg i.p.) | CGRP release expressed as percent of baseline levels, 20-25 min ([2]; 30 mg/kg i.p.) | CGRP release expressed as percent of baseline levels, Baseline ([2]; 30 mg/kg i.p.) | Effect on CSD-induced CGRP release / CGRP levels in blood (in words) [2, 3] |
| --- | --- | --- | --- | --- | --- | --- | --- | --- | --- | --- | --- | --- | --- | --- | --- | --- | --- | --- |
| CCCC(CCC)C(=O)O [Valproic acid, reference compound] | 3.7 ± 0.3 | 56 ± 8% | 71 ± 15% | 100 ± 0% | – | – | – | – | – | – | – | – | – | – | – | – | – | – |
| COC[C@@H](NC(C)=O)C(=O)NCc1ccccc1 [SPM 927, (R)-2-acetamide-N-benzyl-3-methoxypropionamide] | – | – | – | – | 4.2 ± 0.4 | 3.3 ± 0.4 | 3.5 ± 0.6 | reduces; also recorded: significant suppression | 126 ± 45% | 35 ± 7% | 100 ± 0% | 114 ± 27% | 66 ± 31% | 100 ± 0% | 92 ± 53% | 71 ± 12% | 100 ± 0% | reduces; also recorded: significant suppression |
